In a compilation of properties of binary mixtures (doi:10.1016/j.molliq.2019.110987):

Assay: xn = mol fraction of the nth substance listed
Conditions: 100 kPa

CN(C)C=O + CCCC[P+](C)(CCCC)CCCC.COS(=O)(=O)[O-]
x2 = 0
Conditions	speed of sound [m/s]	viscosity [mPa·s]
293.15 K	1484.1	0.867
298.15 K	1468.9	0.813
303.15 K	1447.2	0.764
313.15 K	1410.2	0.684
318.15 K	1391.2	0.663

CCCC[P+](C)(CCCC)CCCC.COS(=O)(=O)[O-] + CN(C)C=O
Conditions	speed of sound [m/s]	viscosity [mPa·s]
293.15 K, x1 = 0.0474	1486.7	1.774
293.15 K, x1 = 0.0765	1492.6	2.681
293.15 K, x1 = 0.1106	1502.8	3.495
293.15 K, x1 = 0.1508	1513.1	5.02
293.15 K, x1 = 0.1991	1518.1	6.59
293.15 K, x1 = 0.2582	1529.5	12.72
293.15 K, x1 = 0.5542	1551.2	145.3
293.15 K, x1 = 0.6717	1554.1	246
293.15 K, x1 = 0.7768	1557.2	368
293.15 K, x1 = 0.8253	1559.8	439
293.15 K, x1 = 0.8837	1560.2	532
293.15 K, x1 = 1	1563.7	729
298.15 K, x1 = 0.0474	1472.5	1.934
298.15 K, x1 = 0.0765	1482.5	3.021
298.15 K, x1 = 0.1106	1491.5	4.201
298.15 K, x1 = 0.1508	1499.4	5.71
298.15 K, x1 = 0.1991	1506.2	9.12
298.15 K, x1 = 0.2582	1511.1	17.12
298.15 K, x1 = 0.3321	1523.3	24.22
298.15 K, x1 = 0.4272	1529.1	41
298.15 K, x1 = 0.5542	1535.5	80.9
298.15 K, x1 = 0.6717	1538.1	164.4
298.15 K, x1 = 0.7768	1540.5	267
298.15 K, x1 = 0.8253	1542.3	315
298.15 K, x1 = 0.8837	1544	389
298.15 K, x1 = 0.9362	1545	445
303.15 K, x1 = 0.0474	1453.5	1.154
303.15 K, x1 = 0.1106	1471.3	3.824
303.15 K, x1 = 0.1508	1479.2	4.91
303.15 K, x1 = 0.1991	1487.8	5.73
303.15 K, x1 = 0.2582	1497.1	11.88
303.15 K, x1 = 0.3321	1503.3	15.34
303.15 K, x1 = 0.4272	1510.1	31.14
303.15 K, x1 = 0.5542	1519.2	44.8
303.15 K, x1 = 0.6717	1520.1	115.1
303.15 K, x1 = 0.7768	1523.5	192.4
303.15 K, x1 = 0.8253	1525.4	233
303.15 K, x1 = 0.9362	1528.2	325
303.15 K, x1 = 1	1529.6	381
308.15 K, x1 = 0.0474	1434.9	2.009
308.15 K, x1 = 0.0765	1444.1	2.042
308.15 K, x1 = 0.1106	1452.2	3.858
308.15 K, x1 = 0.1508	1461.5	4.52
308.15 K, x1 = 0.1991	1470.1	5.96
308.15 K, x1 = 0.2582	1479.6	10.08
308.15 K, x1 = 0.3321	1485.8	13.81
308.15 K, x1 = 0.4272	1495.1	26.52
308.15 K, x1 = 0.5542	1501.1	37.9
308.15 K, x1 = 0.7768	1507	140.5
308.15 K, x1 = 0.8253	1509.1	170.5
308.15 K, x1 = 0.8837	1510.8	201
308.15 K, x1 = 0.9362	1513.8	242
308.15 K, x1 = 1	1514.3	286
313.15 K, x1 = 0.0765	1426.1	2.915
313.15 K, x1 = 0.1106	1433.2	3.012
313.15 K, x1 = 0.1508	1444.1	4.451
313.15 K, x1 = 0.1991	1452.6	5.02
313.15 K, x1 = 0.2582	1460.2	8.85
313.15 K, x1 = 0.3321	1469.2	13.52
313.15 K, x1 = 0.4272	1479.1	–
313.15 K, x1 = 0.5542	1487.8	32.59
313.15 K, x1 = 0.6717	1489.8	66.5
313.15 K, x1 = 0.7768	1491.1	107.4
313.15 K, x1 = 0.8253	1494.8	127.5
313.15 K, x1 = 0.8837	1496.5	152.2
313.15 K, x1 = 0.9362	1497.5	182.7
318.15 K, x1 = 0.0474	1399.2	0.955
318.15 K, x1 = 0.0765	1409.7	1.855
318.15 K, x1 = 0.1106	1416.3	2.982
318.15 K, x1 = 0.1508	1425.5	4.147
318.15 K, x1 = 0.1991	1434.9	6.04
318.15 K, x1 = 0.4272	1463.7	20.74
318.15 K, x1 = 0.5542	1471.8	28.42
318.15 K, x1 = 0.6717	1475.1	–
318.15 K, x1 = 0.7768	1478.2	81.3
318.15 K, x1 = 0.8253	1480.1	106.5
318.15 K, x1 = 0.8837	1482.6	127.4
318.15 K, x1 = 0.9362	1484.1	149.6
318.15 K, x1 = 1	1485.7	169.1
323.15 K, x1 = 0.0474	1382.2	1.897
323.15 K, x1 = 0.0765	1392.5	2.214
323.15 K, x1 = 0.1106	1398.2	2.469
323.15 K, x1 = 0.1991	1417.7	4.5
323.15 K, x1 = 0.2582	1425.1	9.48
323.15 K, x1 = 0.3321	1436.2	14.54
323.15 K, x1 = 0.4272	1445.5	19.56
323.15 K, x1 = 0.5542	1456	25.19
323.15 K, x1 = 0.6717	1461.6	43.1
323.15 K, x1 = 0.7768	1464.9	–
323.15 K, x1 = 0.8253	1466.6	100.4
323.15 K, x1 = 0.9362	1471.7	123
323.15 K, x1 = 1	1472	133.4
